The source of these data is a melting point compilation (Tetko et al.; mined from patent text by program, amines drawn as free bases though some values may be those of a salt).

The melting point is the temperature of the solid-liquid transition.

In turn, `N=C(N)Nc1ccc(Cl)c(Cl)c1` came in with a melting point of 208 °C.
In turn, `O=C1CCCCC1C(C[N+](=O)[O-])c1ccc(C(F)(F)F)cc1` (racemic) returned a melting point of 107 to 108 °C.
`O=C(c1ccc(F)c(Cl)c1)c1ccc(F)c(Cl)c1` returned a melting point of 93 °C.
`Cc1ccc2nc(-c3ccc4nc(N)sc4c3)sc2c1`: the melting point was in the range of 250 to 251 °C.
Regarding `O=C(O)CCc1cn(Cc2ccc(OCc3cccc(-c4cnccn4)c3)cc2)cc1-c1ccccc1`, the melting point lay in the range of 91 to 92 °C.
On to `O=S(=O)(Oc1ccc(Oc2ccc(OS(=O)(=O)c3ccccc3)cc2)cc1)c1ccccc1`, for which the melting point is 129 to 130 °C.
With `Cc1csc2nc3cccc(C(F)(F)F)c3c(=O)n12`, the melting point is 182 to 186 °C.
Molecule `COC(=O)CC(C(=O)c1ccc(SC)cc1)c1ccccc1` (configuration not stated) yielded a melting point of 82.4 to 83 °C.
In the case of `O=S(=O)(Nc1cccc2cc(-c3nc4ccccc4s3)[nH]c12)c1cccs1`, the melting point was in the range of 201 to 202 °C.
In the case of `CCCn1cc(Cc2ccc(C(=O)NS(=O)(=O)c3ccccc3C)cc2OC)c2cc(CC3CCN(C)C3=O)ccc21` (configuration not stated) it was 103 to 115 °C; in that of `Cc1ccn2c(Br)c(CCc3ccc4nc(N)sc4c3)nc2c1`, 233 to 236 °C; in that of `COc1ccc(C(=O)c2cc(Br)c(OC)cc2OC)c(F)c1`, 114 to 115 °C.
As for `CCCCCCCCCCCOCCCN=C=O`, the melting point was 72 to 78 °C.
Take `CCCCc1ncc(CC(Cc2ccccc2)C(=O)O)n1Cc1ccc(C(=O)O)cc1` (configuration not stated): the melting point fell in the range of 120 to 124 °C.
`O=[N+]([O-])c1ccc(C2=NCCCN2)cc1` showed a melting point of 168 to 172 °C.
For `OC1CSC(Oc2ccc(-c3cnccc3F)nc2-c2cnccc2F)C(O)C1O` (configuration not stated), the melting point worked out at 209 °C.
In the case of `COc1ccccc1NC(=O)c1ccccc1CN1C(=O)C2(COc3cc4c(cc32)CCO4)c2ccccc21` (configuration not stated), the melting point was in the range of 172 to 174 °C.
In the case of `COC(=O)/C(O)=C1/C(=O)c2ccc(OC)cc2CC1C` (configuration not stated) it was 89 to 89.6 °C; in that of `CC1(C)C(N)CN1c1c(F)cc2c(=O)c(C(=O)O)cn(C3CC3)c2c1F` (configuration not stated), 214 to 216 °C; in that of `N#CC=Cc1ccc(Cl)c(Cl)c1`, 98.2 °C.
`CN(C)c1ccccc1CSC1=NC(=O)C(C)(C)N1` registered a melting point of 113 to 115 °C.
The result for `Cc1ccc(S(=O)(=O)NC(C)(C)C)o1` reads 113 to 114 °C.
With `O=C1CCC(=O)N1CC#CCN1CCCC1`, the melting point lay within 93 to 94 °C.
In the case of `COC(=O)c1cccc(CNC(C)=O)c1C(=O)OC` it was 177 to 179 °C; in that of `O=C(NCCO)c1cccc(-c2cccc3cc(Cc4cccc(F)c4)oc23)c1`, 159 to 160 °C.
`O=C(CN1C(=O)C2(COc3cc4c(cc32)CCO4)c2c(Br)cccc21)Nc1ccccc1F` (configuration not stated): the melting point was 245 to 246 °C.
Molecule `NCCn1cnc(-c2ccccc2)c1-c1ccccc1` displayed a melting point of 96 to 98 °C.
The result for `CCOC(=O)c1cnc2cc(C)nn2c1N(C)S(=O)(=O)c1ccc(Oc2ccncc2)cc1` reads 139 to 144 °C; that for `CC(=O)Nc1c(C(=O)c2ccccc2)[nH]c2cc(C(F)(F)F)ccc12`, 177 to 179 °C.
Regarding `CN(C)CCOc1ccc(Nc2nccc(-c3c[nH]nc3-c3ccc(OCc4ccccc4)cc3)n2)cc1`, the melting point was 87 to 91 °C.
The molecule `Cc1ccccc1Sc1ccc2c(c1)CCC1N(C)C(=O)CCC21C` (single isomer, unassigned; (+)) returned a melting point of 105 to 106 °C.
Molecule `CN(C)c1ccc(/C=C/C(=O)CC(=O)/C=C/c2ccc3cc[nH]c3c2)cc1` came in with a melting point of 112 to 119 °C.
`CCN1CC2=C3C(=NN(c4ccc(C(C)C)cc4Br)C(=O)N3CC2)C(C)=N1`: the melting point lay within 144 to 146 °C.
For the molecule `NNC(=O)c1ccn2ncnc2c1`, the melting point lay in the range of 244 to 245 °C.
For the molecule `C=CCc1cc2c(c(O)c1C)C(=O)c1c(OC)c3c(c(O)c1C2=O)-c1c(cc2cnn(-c4ccccc4)c(=O)c2c1O)CC3`, the melting point is 163 °C.
The result for `COc1ccc(-c2ccc(N)nn2)cc1OC(C)C` reads 184 °C.
As to `CCOc1cc(OCCCCc2cn(-c3ccc(C(F)(F)F)cn3)nc2OCC)ccc1CCC(=O)O`, the melting point lay within 101 to 102 °C.
In the case of `O=C1c2cc(O)ccc2CC1Cc1ccccc1` (configuration not stated) it was 140 to 143 °C; in that of `CCCCCNS(=O)(=O)NC(=O)/C(C)=C/c1ccc(OC(C)C)cc1Oc1ncc(C(F)(F)F)cc1Cl`, 138 °C; in that of `CN(CC(=O)O)Cc1cc(C(=O)c2cccs2)cc(C(C)(C)C)c1O`, 180 to 182 °C.
As to `CN(CCO)Cc1cc(C(=O)c2cccs2)cc(C(C)(C)C)c1O`, the melting point is 98 to 100 °C.
In turn, `CC(=O)Nc1nc2c(sc(=O)n2C2OC(COC(C)=O)C(OC(C)=O)C2OC(C)=O)c(=O)[nH]1` (configuration not stated) returned a melting point of 247 to 248 °C.
Molecule `COc1ccc(C2=NN(C3CCN(C(C)=O)CC3)C(=O)CC2C)cc1OC` (configuration not stated) displayed a melting point of 149 to 152 °C.
For the molecule `CCCCCCCc1ccc(-c2ncc(C#N)cn2)cc1`, the melting point is 96.3 °C.
Take `O=C(NC/C=C/c1ccccc1)c1ccc(Cl)c(Cl)c1`: the melting point is 105 °C.
For `CCOc1ccc(-c2c(Cl)ncn2-c2ccc(S(C)(=O)=O)cc2)cc1`, the melting point came out at 207 °C.
The molecule `O=C(O)/C=C/c1ccc(-c2nc3c(=O)n(CCC4=CCCCC4)c(=O)n(CCC4=CCCCC4)c3[nH]2)cc1` displayed a melting point above 250 °C.
Molecule `CCOC(=O)c1ccc(NCCc2cccc3ccccc23)cc1` returned a melting point of 104 to 106 °C.
As to `C=CCCC1(C(F)(F)F)OC(=O)Nc2ccc(Cl)cc21` (racemic), the melting point lay in the range of 165 to 166 °C.
In the case of `CN(C)c1ccc(C2(c3ccc(N(C)C)cc3N(C)C)OC(=O)c3cc(N(C)C)ccc32)cc1` (configuration not stated) it was 182 to 185 °C.
In turn, `CC(C)(C)COc1cccc(C[C@H](N)[C@H](O)c2cccc(Cl)c2)c1` (racemic) had a melting point of 115 to 116 °C.
Turning to `CCNC(=O)Nc1ccc(-c2cc3c(Nc4cccc(Cl)c4)ncnc3[nH]2)cc1`, the melting point was above 290 °C.
The molecule `C[C@]1(COc2ccc(-c3nc(-c4ccc(Cl)cc4)co3)cc2)Cn2cc([N+](=O)[O-])nc2O1` came in with a melting point of 249 to 252 °C.
As for `CNC(=O)CSC(c1ccccc1)(c1ccccc1)c1ccccc1`, the melting point lay in the range of 200 to 210 °C.
Regarding `O=C1CCC(N2Cc3c(OCc4ccc(CN5CCC(Oc6ccccc6)CC5)cc4)cccc3C2=O)C(=O)N1` (configuration not stated), the melting point fell in the range of 180 to 182 °C.
The result for `COc1ccc(NCCn2nc(O)c3[nH]c4cc(Cl)ccc4c(=O)c3c2=O)cc1` reads 239 to 241 °C; that for `Cn1ncc2c(=O)[nH]cnc21`, 289 to 290 °C; that for `COc1cc(OC)c2c(=O)[nH]c(-c3cc(C)c(OCCN4Cc5ccccc5C4)c(C)c3)nc2c1`, 202 °C.
With `Cn1c(-c2ccccc2Nc2cccc(C(F)(F)F)c2)n[nH]c1=O`, the melting point lay in the range of 178 to 180 °C.
Consider `COc1ccc(/C=C/c2nc3ncccc3c(=O)o2)cc1OC`, for which the melting point was in the range of 228 to 231 °C.
On to `CSC(N)=C(Cc1ccccc1)[N+](=O)[O-]`, for which the melting point is 112 °C.
As to `COc1cccc2c1N(CCCO)Cn1cc(CO)cc1-2`, the melting point was 116 to 118 °C.
